Results from patent US8470845B2, “Analgesic and methods of treating pain” (Toray Industries, Inc., priority 2004, dated 2013).
Counter-ions that a name gives are not always drawn.

system: male ddY mouse; assay: Analgesic activity test by mouse acetic acid writhing method; assay type: in vivo; conditions: Mus musculus, subcutaneous, 15 minutes before i.p. 0.6% acetic acid; dosage to halve the number of writhing response; read-out: ED50
Experimental: To each male ddY mouse, each test compound or the vehicle was subcutaneously administered in an administration volume of 0.1 mL/10 g body weight. Fifteen minutes later, 0.1 mL/10 g body weight of aqueous 0.6% (v/v) acetic acid solution was intraperitoneally administered. From 10 minutes after the administration of the acetic acid solution, the number of writhing response (i.e., the behavior to bend the body backward and/or twist the body) during 10 minutes was counted, and the analgesic activity was evaluated based on the number of writhing response. […] 10% Aqueous dimethylsulfoxide (DMSO) was used as a vehicle for test compounds 1, 2, 3, 4, 5, 6, 7, 8, 9, 10, 11, 12, 13, 14, 15, 16, 17, 18, 19, 20, 21 and 22. 0.1% Citric acid/aqueous 5% xylitol was used as a vehicle for test compounds 10f.

Compound | ED50
Cc1ccc2c(c1)C(=O)N([C@@H]1CC[C@@]3(O)[C@H]4Cc5ccc(O)c6c5[C@@]3(CCN4CC3CC3)[C@H]1O6)C2=O [Compound 11, N-(17-cyclopropylmethyl-4,5α-epoxy-3,14-dihydroxy-morphinan-6β-yl)-4-methylphthalimide.hydrochloric acid salt] | 0.045 mg/kg
O=C1CCC(=O)N1[C@@H]1CC[C@@]2(O)[C@H]3Cc4ccc(O)c5c4[C@@]2(CCN3CC2CC2)[C@H]1O5 [Compound 21, N-(17-cyclopropylmethyl-4,5α-epoxy-3,14-dihydroxy-morphinan-6β-yl)-succinic imide.tartaric acid salt] | 3.37 mg/kg
O=C1C=CC(=O)N1[C@@H]1CC[C@@]2(O)[C@H]3Cc4ccc(O)c5c4[C@@]2(CCN3CC2CC2)[C@H]1O5 [Compound 22, N-(17-cyclopropylmethyl-4,5α-epoxy-3,14-dihydroxy-morphinan-6β-yl)-maleic imide.tartaric acid salt] | 2.18 mg/kg
Cl.O=C1CCCN1[C@H]1CC[C@@]2(O)[C@H]3Cc4ccc(O)c5c4[C@@]2(CCN3CC2CC2)[C@H]1O5 [Compound 2, 1-(17-cyclopropylmethyl-4,5α-epoxy-3,14-dihydroxy-morphinan-6α-yl)pyrrolidine-2-one-hydrochloric acid salt] | 0.95 mg/kg
O=C1c2ccc(F)cc2C(=O)N1[C@@H]1CC[C@@]2(O)[C@H]3Cc4ccc(O)c5c4[C@@]2(CCN3CC2CC2)[C@H]1O5 [Compound 13, N-(17-cyclopropylmethyl-4,5α-epoxy-3,14-dihydroxy-morphinan-6β-yl)-4-fluorophthalimide.tartaric acid salt] | 0.037 mg/kg
O=C1c2cccc(F)c2C(=O)N1[C@@H]1CC[C@@]2(O)[C@H]3Cc4ccc(O)c5c4[C@@]2(CCN3CC2CC2)[C@H]1O5 [Compound 14, N-(17-cyclopropylmethyl-4,5α-epoxy-3,14-dihydroxy-morphinan-6β-yl)-3-fluorophthalimide.tartaric acid salt] | 0.034 mg/kg
C=CCN1CC[C@]23c4c5ccc(O)c4O[C@H]2[C@@H](N2C(=O)c4ccccc4C2=O)CC[C@@]3(O)[C@H]1C5 [Compound 9, N-(17-allyl-4,5α-epoxy-3,14-dihydroxymorphinan-6α-yl)-phthalimide.tartaric acid salt] | 0.14 mg/kg
C=CCN1CC[C@]23c4c5ccc(O)c4O[C@H]2[C@@H](N2C(=O)c4cccc(F)c4C2=O)CC[C@@]3(O)[C@H]1C5 [Compound 8, N-(17-allyl-4,5α-epoxy-3,14-dihydroxy-morphinan-6α-yl)-3-fluorophthal-imide.tartaric acid salt] | 0.03 mg/kg
Cc1cccc2c1C(=O)N([C@@H]1CC[C@@]3(O)[C@H]4Cc5ccc(O)c6c5[C@@]3(CCN4CC3CC3)[C@H]1O6)C2=O [Compound 15, N-(17-cyclopropylmethyl-4,5α-epoxy-3,14-dihydroxy-morphinan-6β-yl)-3-methylphthalimide.tartaric acid salt] | 0.03 mg/kg
C=CCN1CC[C@]23c4c5ccc(O)c4O[C@H]2[C@H](N2C(=O)c4ccc(F)cc4C2=O)CC[C@@]3(O)[C@H]1C5 [Compound 7, N-(17-allyl-4,5α-epoxy-3,14-dihydroxymorphinan-6β-yl)-4-fluorophthalimide.tartaric acid salt] | 0.033 mg/kg
Cl.O=C1CCCN1[C@@H]1CC[C@@]2(O)[C@H]3Cc4ccc(O)c5c4[C@@]2(CCN3CC2CC2)[C@H]1O5 [Compound 1, 1-(17-cyclopropylmethyl-4,5α-epoxy-3,14-dihydroxy-morphinan-6β-yl)pyrrolidine-2-one-hydrochloric acid salt] | 2.62 mg/kg
O=C1c2ccccc2C(=O)N1[C@@H]1CC[C@@]2(O)[C@H]3Cc4ccc(O)c5c4[C@@]2(CCN3CC2CC2)[C@H]1O5 [Compound 10, N-(17-cyclopropylmethyl-4,5α-epoxy-3,14-dihydroxymorphinan-6β-yl)-phthalimide.hydrochloric acid salt] | 0.031 mg/kg
O=C1c2cc3ccccc3cc2C(=O)N1[C@@H]1CC[C@@]2(O)[C@H]3Cc4ccc(O)c5c4[C@@]2(CCN3CC2CC2)[C@H]1O5 [Compound 16, N-(17-cyclopropylmethyl-4,5α-epoxy-3,14-dihydroxy-morphinan-6β-yl)naphthalenedicarboxylic imide.hydrochloric acid salt] | 0.31 mg/kg
O=C1c2ccccc2CN1[C@@H]1CC[C@@]2(O)[C@H]3Cc4ccc(O)c5c4[C@@]2(CCN3CC2CC2)[C@H]1O5 [Compound 5, 2-(17-cyclopropylmethyl-4,5α-epoxy-3,14-dihydroxy-morphinan-6β-yl)-2,3-dihydroisoindol-1-one.tartaric acid salt] | 0.071 mg/kg
O=C1c2cc(Cl)c(Cl)cc2C(=O)N1[C@@H]1CC[C@@]2(O)[C@H]3Cc4ccc(O)c5c4[C@@]2(CCN3CC2CC2)[C@H]1O5 [Compound 17, N-[17-(cyclopropylmethyl)-4,5α-epoxy-3,14-dihydroxymorphinan-6β-yl]]-4,5-dichlorophthalimide.tartaric acid salt] | 0.27 mg/kg
O=C1c2ccc(Cl)cc2C(=O)N1[C@@H]1CC[C@@]2(O)[C@H]3Cc4ccc(O)c5c4[C@@]2(CCN3CC2CC2)[C@H]1O5 [Compound 12, N-(17-cyclopropylmethyl-4,5α-epoxy-3,14-dihydroxy-morphinan-6β-yl)-4-chlorophthalimide.tartaric acid salt] | 0.29 mg/kg
O=C1C(Cc2ccccc2)CCN1[C@@H]1CC[C@@]2(O)[C@H]3Cc4ccc(O)c5c4[C@@]2(CCN3CC2CC2)[C@H]1O5 (stereo partly drawn) [Compound 3, 1-(17-cyclopropylmethyl-4,5α-epoxy-3,14-dihydroxy-morphinan-6β-yl)-3-benzyl-pyrrolidine-2-one.tartaric acid salt] | 0.28 mg/kg
CCC/C=C1\CC(=O)N([C@@H]2CC[C@@]3(O)[C@H]4Cc5ccc(O)c6c5[C@@]3(CCN4CC3CC3)[C@H]2O6)C1=O [Compound 6, N-(17-cyclopropylmethyl-4,5α-epoxy-3,14-dihydroxy-morphinan-6β-yl)-2-butylidene succinic imide.tartaric acid salt] | 0.48 mg/kg
O=C1C(Cc2ccccc2)CCN1[C@H]1CC[C@@]2(O)[C@H]3Cc4ccc(O)c5c4[C@@]2(CCN3CC2CC2)[C@H]1O5 (mixture of isomers) [Compound 4, 1-(17-cyclopropylmethyl-4,5α-epoxy-3,14-dihydroxymorphinan-6α-yl)-3-benzyl-pyrrolidine-2-one (diastereomer mixture).tartaric acid salt] | 0.26 mg/kg

same assay, conditions: subcutaneous, 15 minutes before i.p. 0.6% acetic acid; dosage to halve the number of writhing response

Compound | ED50
O=C(O)C(O)C(O)C(=O)O.O=C1c2ccccc2C(=O)N1[C@@H]1CC[C@@]2(O)[C@H]3Cc4ccc(O)c5c4[C@@]2(CCN3CC2CC2)[C@H]1O5 [Compound 18, N-(17-cyclopropylmethyl-4,5α-epoxy-3,14-dihydroxy-morphinan-6β-yl)-phthalimide.tartaric acid salt] | 0.019 mg/kg
O=C(O)C(O)C(O)C(=O)O.O=C1C2=C(CCCC2)C(=O)N1[C@@H]1CC[C@@]2(O)[C@H]3Cc4ccc(O)c5c4[C@@]2(CCN3CC2CC2)[C@H]1O5 [Compound 19, N-(17-cyclopropylmethyl-4,5α-epoxy-3,14-dihydroxy-morphinan-6β-yl)-3,4,5,6-tetrahydrophthalimide.tartaric acid salt] | 0.032 mg/kg
O=C(O)C(O)C(O)C(=O)O.Oc1ccc2c3c1O[C@H]1[C@H](N4CCCC4)CC[C@@]4(O)[C@@H](C2)N(CC2CC2)CC[C@]314 [Compound 20, 17-cyclopropylmethyl-4,5α-epoxy-6β-(pyrrolidine-1-yl)-morphinan-3,14-diol.tartaric acid salt, reference compound] | >10 mg/kg
